Where no end group is shown, it is not given here.
Key:
Format in all cases: cell-based
[1] = test system: Mtb H37Rv entry to A549 alveolar epithelial cells; assay: microbe, parasite or virus in culture; details: Mycobacterium tuberculosis, A549, 480 h, inhibition control at 30 μM, triplicate, read-out: inhibition of mycobacterial entry to A549 epithelial cells
[2] = test system: Mtb H37Rv entry to U937 macrophages; assay: microbe, parasite or virus in culture; details: Mycobacterium tuberculosis, U-937, 480 h, inhibition control at 30 μM, triplicate, read-out: inhibition of mycobacterial entry to U937 monocyte-derived macrophages
U937 macrophage line = details: MTT; peptide 20 and 200 μM in 1X PBS, 2 h; 5 x 10^4 cells/well; absorbance 570 nm
Method: Rv3632 peptides' cytotoxic effect was evaluated by viability assay involving MTT (3- (4,5-dimethylthiazol-2-yl) -2,5-diphenyltetrazolium bromide) tetrazolium reduction, where 5 x 10^4 cells/well were incubated for 2 hours with each peptide at 20 and 200 μM in 1X PBS, using the previously mentioned incubation conditions for the invasion assay; 10% SDS was used as cytotoxicity control. After incubation time had elapsed, 10μL MTT were added to each well and left for 12 hours; the formazan crystals so formed were dissolved with sodium dodecyl sulfate (SDS) for reading absorbance at 570nm on a spectrophotometer (Multiskan GO, Thermo Scientific). Multiskan GO (v. 3.2) software was used for analysing the data.

`C=C1[C@@H](C)[C@H]2[C@H](Cc3ccccc3)NC(=O)[C@]23[C@H](OC(C)=O)/C=C/[C@@](C)(O)C(=O)[C@@H](C)C/C=C/[C@H]3[C@@H]1O` [Cytochalasin, Cytochalasin D] was tested. Which inhibition at 30 µM [1] did it give?
Its inhibition at 30 µM is 60%.

What about the inhibition at 30 µM [2] of the same molecule?
The inhibition at 30 µM was 80%.

For TLSTYMRFKDLELRYARIAR [compound 39255], which “cytotoxic effect on the U937 macrophage line, result in words” value (U937 macrophage line) is on record?
Its value is “without having a cytotoxic effect”.

Reference: publication PMC6487176, “Specific Binding Peptides from Rv3632: A Strategy for Blocking Mycobacterium tuberculosis Entry to Target Cells?” (BioMed Research International, 2019)
